PMC10808720 (Frontiers in Pharmacology, 2024)

Tests used:
Assay type in all cases: cell-based, human adenovirus (HAdV5)
HAdV5-GFP = assay: microbe, parasite or virus in culture; details: Human adenovirus sp.
Method: Compounds were tested using low MOI infections (0.06 vp/cell), initially at concentrations of 10 μM and subsequently in a dose-response assay ranging from 10 μM to 2.44 nM in a plaque assay. Briefly, 293β5 cells were seeded in 6-well plates at a density of 1 × 10^6 cells per well in duplicate for each condition. When the cells reached 80%–90% confluency, they were infected with HAdV5-GFP and rocked for 2 h at 37°C. After the incubation, the inoculum was removed and the cells were washed once with PBS. Cells were then carefully overlaid with equal parts of 4 mL/well 1.6% ([…]) Difco Agar Noble (Becton, Dickinson & Co., Sparks, MD, USA) and 2× Eagle’s Minimum Essential Medium (EMEM; BioWhittaker) supplemented with 2×penicillin/streptomycin, 2× L-glutamine, and 10% FBS. The mixture also contained the compounds in the concentration ranges described above. Following incubation for 7 days at 37°C, plates were scanned with a Typhoon FLA 9000 imager (GE Healthcare Life Sciences) and the formed plaques were quantified with ImageJ ([Schneider et al., 2012]). Plaque counting was performed to calculate the 50% inhibitory concentration (IC50) of each compound using the statistical software GraphPad Prism 6.

HAdV5 = assay: HAdV-mediated endosome disruption (α-sarcin co-delivery, HPG incorporation)
Method: A549 cells (2 × 10^4 cells/well) were incubated in DMEM without cysteine or methionine supplemented with 10% dialyzed FBS [DMEM(−)] in black 96-well plates for 1 h prior to infection. Three-fold serial dilutions (0.45 ng–1,000 ng) of HAdV5, or AdV2ts1 were preincubated with cells in the presence of 10-fold IC50 concentration of the compounds obtained in the plaque assay or the same volume of DMSO for positive control for 1 h. The medium was then removed and replaced with 50 μL DMEM(−) containing 0.1 mg/ml α-sarcin (Santa Cruz Biotechnology, Dallas, Texas, USA) and drug mixtures. After 1 h at 37°C, the Click-iT L-homopropargylglycine (HPG) Alexa Fluor 488 Protein Synthesis Assay Kits (Invitrogen) was used to analyse protein synthesis according to the manufacturer’s instructions. The incorporation of the amino acid analogue of methionine HPG containing Alexa Fluor 488 azide was measured using a Typhoon 9410 imager (GE Healthcare Life Sciences) and calculated by subtracting the background level of the control well containing HPG and α-sarcin but not the virus (100% incorporation).

wild-type HAdV5 = assay: Nuclear-associated HAdV genomes (qPCR after nuclear isolation); details: 10-fold IC50; 45 min after synchronized infection; A549
Method: Nuclear delivery of HAdV genomes was assessed using qPCR following nuclear isolation from infected cells. Briefly, 1 × 10^6 A549 cells in 6-well plates were infected either with wild-type HAdV5 at an MOI of 2,000 vp/cell in the presence of a 10-fold IC50 concentration of the compounds obtained in the plaque assay or the same volume of DMSO as the positive control. Forty-five minutes after infection, the A549 cells were trypsinized, collected, and washed twice with PBS. The cell pellet was resuspended in 500 μL of 1×hypotonic buffer (20 mM Tris-HCl pH 7.4, 10 mM NaCl, 3 mM MgCl2) and incubated for 15 min at 4°C. Then, 25 μL of NP-40 was added and the samples were vortexed. The homogenates were centrifuged for 10 min at 835 g at 4°C. Following the removal of the cytoplasmic fraction (supernatant), HAdV DNA was isolated from the nuclear (pellet) and cytoplasmic fractions using the E.Z.N.A.® Tissue DNA Kit (Omega Bio-tek, Norcross, GA).

C=C(C)[C@H]1Cc2c(ccc3c2O[C@@H]2COc4cc(OC)c(OC)cc4[C@@H]2C3=O)O1 [Rotenone, (2R,6aS,12aS)-8,9-dimethoxy-2-(prop-1-en-2-yl)-1,2,12,12a-tetrahydrochromeno[3,4-b]furo[2,3-h]chromen-6-(6aH)-one]
IC50 (HAdV5-GFP; 168 h, read-out: IC50 plaque assay): 3.9 ± 0.1 nM | inhibition at 0.004 µM (HAdV5-GFP; read-out: inhibition of plaque formation): 67.8% | HPG incorporation (HAdV5; compared with a control without α-sarcin, 10-fold IC50, independent of virus concentration): approximately 30% | attenuation of HAdV-mediated endosomolysis (HAdV5; α-sarcin assay): did not attenuate | accessibility of HAdV genomes to the nucleus (wild-type HAdV5): significantly blocked
